In brackets after ≈: the same amount, converted by molar mass. Where two headings read alike, the source gives them in different places.
What was measured:
Format in all cases: cell-based
[1] = system: Klebsiella pneumoniae KP457 (2009 ESBL+, CTX-M, OXA); experiment: MIC assay KP457
[2] = system: Streptococcus pneumoniae SP106 (ATCC 49619); experiment: MIC assay SP106; details: Table 5
[3] = system: Pseudomonas aeruginosa PA555 (ATCC BAA-47, wild type strain PAO1); experiment: MIC assay PA555
[4] = system: Klebsiella pneumoniae KP153 (Tetracycline-resistant, tet(A), MDR, ESBL+); experiment: MIC assay KP153; details: Table 5
[5] = system: Acinetobacter baumannii AB250 (Cystic fibrosis isolate, MDR); experiment: MIC assay AB250
[6] = system: Stenotrophomonas maltophilia SM256 (Cystic fibrosis isolate, MDR); experiment: MIC assay SM256
[7] = system: Proteus mirabilis PM385 (Urine ESBL+ isolate); experiment: MIC assay PM385
[8] = system: Pseudomonas aeruginosa PA556 (Multiple-Mex efflux pump knockout strain)
[9] = system: KP194 7E+05; experiment: MIC assay KP194; details: Table 5
Description: The assays were run as follows.

[10] = system: Escherichia coli EC155 (Tetracycline-resistant, tet(A))
[11] = system: Staphylococcus aureus SA161 (HA-MRSA, tetracycline-resistant, tet(M)); experiment: MIC assay SA161
[12] = system: Enterobacter cloacae EC603 (Urine isolate (Spain)); experiment: MIC assay EC603
[13] = system: Enterococcus faecalis EF327 (Wound isolate (US) tet(M)); experiment: MIC assay EF327
[14] = system: Streptococcus pneumoniae SP160 (Tetracycline-resistant, tet(M)); experiment: MIC assay SP160
[15] = system: Escherichia coli EC107 (ATCC 25922); experiment: MIC assay EC107
[16] = system: Enterococcus faecium EF404 (Blood isolate (US) tet(M)); experiment: MIC assay EF404
[17] = system: Burkholderia cenocepacia BC240 (Cystic fibrosis isolate, MDR); experiment: MIC assay BC240
[18] = system: Enterococcus faecalis EF159 (Tetracycline-resistant, tet(M)); experiment: MIC assay EF159; details: Table 5
[19] = system: Pseudomonas aeruginosa PA1145 (Strain used in murine pneumonia model); experiment: MIC assay PA1145; details: control compounds, numeric

CN(C)[C@@H]1C(O)=C(C(N)=O)C(=O)[C@@]2(O)C(O)=C3C(=O)c4c(O)cccc4C[C@H]3C[C@@H]12 [Sancycline, sancycline]
MIC ([1]; Klebsiella pneumoniae, read-out: MIC KP457 CTX-M-15): 8 µg/mL (≈ 19.3 µM)
MIC KP457 CTX-M-15 ([1]; Table 6): 8 µg/mL (≈ 19.3 µM)
MIC KP457 CTX-M-15 ([1]; Table 7): 8 µg/mL (≈ 19.3 µM)
MIC SP106 49619 [2]: 0.25 µg/mL (≈ 0.603 µM)
MIC PA555 BAA-47 ([3]; Table 7): 32 µg/mL (≈ 77.2 µM)
MIC PA555 BAA-47 ([3]; control compounds, numeric): 32 µg/mL (≈ 77.2 µM)
MIC KP153 tetA [4]: 32 µg/mL (≈ 77.2 µM)
MIC AB250 ([5]; Table 5): 16 µg/mL (≈ 38.6 µM)
MIC AB250 ([5]; Table 6): 16 µg/mL (≈ 38.6 µM)
MIC AB250 ([5]; Table 7): 16 µg/mL (≈ 38.6 µM)
MIC SM256 ([6]; Table 5): 1 µg/mL (≈ 2.41 µM)
MIC SM256 ([6]; Table 6): 1 µg/mL (≈ 2.41 µM)
MIC SM256 ([6]; Table 7): 1 µg/mL (≈ 2.41 µM)
MIC PM385 ([7]; Table 7): 8 µg/mL (≈ 19.3 µM)
MIC PM385 ([7]; control compounds, numeric): 8 µg/mL (≈ 19.3 µM)
MIC PA556 ([8]; Table 5): 1 µg/mL (≈ 2.41 µM)
MIC PA556 ([8]; Table 6): 1 µg/mL (≈ 2.41 µM)
MIC PA556 ([8]; Table 7): 1 µg/mL (≈ 2.41 µM)
MIC [9]: 32 µg/mL (≈ 77.2 µM)
MIC EC155 tetA ([10]; Table 5): 32 µg/mL (≈ 77.2 µM)
MIC EC155 tetA ([10]; Table 6): 32 µg/mL (≈ 77.2 µM)
MIC EC155 tetA ([10]; Table 7): 32 µg/mL (≈ 77.2 µM)
MIC EC155 tetA ([10]; control compounds, numeric): 32 µg/mL (≈ 77.2 µM)

CN(C)c1ccc(O)c2c1C[C@H]1C[C@H]3[C@H](N(C)C)C(O)=C(C(N)=O)C(=O)[C@@]3(O)C(O)=C1C2=O [Minocycline, minocycline]
MIC SA161 tetM ([11]; Table 5): 8 µg/mL (≈ 17.5 µM)
MIC SA161 tetM ([11]; Table 6): 8 µg/mL (≈ 17.5 µM)
MIC SA161 tetM ([11]; Table 7): 8 µg/mL (≈ 17.5 µM)
MIC SA161 tetM ([11]; control compounds, numeric): 8 µg/mL (≈ 17.5 µM)
MIC EC603 tetA ([12]; Table 6): 33 µg/mL (≈ 72.1 µM)
MIC EC603 tetA ([12]; Table 7): 33 µg/mL (≈ 72.1 µM)
MIC KP457 CTX-M-15 ([1]; Table 6): 8 µg/mL (≈ 17.5 µM)
MIC KP457 CTX-M-15 ([1]; Table 7): 8 µg/mL (≈ 17.5 µM)
MIC KP457 CTX-M-15 ([1]; control compounds, numeric): 8 µg/mL (≈ 17.5 µM)
MIC SP106 49619 [2]: 0.015 µg/mL (≈ 0.0328 µM)
MIC PA555 BAA-47 ([3]; control compounds, numeric): 16 µg/mL (≈ 35 µM)
MIC EF327 tetM ([13]; Table 7): 32 µg/mL (≈ 69.9 µM)
MIC EF327 tetM ([13]; control compounds, numeric): 32 µg/mL (≈ 69.9 µM)
MIC SP160 tetM ([14]; Table 4): 2 µg/mL (≈ 4.37 µM)
MIC SP160 tetM ([14]; Table 5): 2 µg/mL (≈ 4.37 µM)
MIC SP160 tetM ([14]; Table 7): 2 µg/mL (≈ 4.37 µM)
MIC SP160 tetM ([14]; control compounds, numeric): 2 µg/mL (≈ 4.37 µM)
MIC KP153 tetA [4]: 8 µg/mL (≈ 17.5 µM)
MIC AB250 ([5]; Table 5): 8 µg/mL (≈ 17.5 µM)
MIC AB250 ([5]; Table 6): 8 µg/mL (≈ 17.5 µM)
MIC AB250 ([5]; Table 7): 8 µg/mL (≈ 17.5 µM)
MIC SM256 ([6]; Table 5): 0.5 µg/mL (≈ 1.09 µM)
MIC SM256 ([6]; Table 6): 0.5 µg/mL (≈ 1.09 µM)
MIC SM256 ([6]; Table 7): 0.5 µg/mL (≈ 1.09 µM)
MIC EC107 25922 ([15]; Table 5): 0.5 µg/mL (≈ 1.09 µM)
MIC EC107 25922 ([15]; control compounds, numeric): 0.5 µg/mL (≈ 1.09 µM)
MIC PM385 ([7]; Table 7): 16 µg/mL (≈ 35 µM)
MIC PM385 ([7]; control compounds, numeric): 16 µg/mL (≈ 35 µM)
MIC EF404 tetM ([16]; Table 7): 8 µg/mL (≈ 17.5 µM)
MIC EF404 tetM ([16]; control compounds, numeric): 8 µg/mL (≈ 17.5 µM)
MIC BC240 ([17]; Table 5): 8 µg/mL (≈ 17.5 µM)
MIC BC240 ([17]; Table 6): 8 µg/mL (≈ 17.5 µM)
MIC BC240 ([17]; Table 7): 8 µg/mL (≈ 17.5 µM)
MIC [9]: 32 µg/mL (≈ 69.9 µM)
MIC EF159 tetM [18]: 16 µg/mL (≈ 35 µM)
MIC EC155 tetA ([10]; Table 5): 8 µg/mL (≈ 17.5 µM)
MIC EC155 tetA ([10]; Table 6): 8 µg/mL (≈ 17.5 µM)

CN(C)c1cc(NC(=O)CNC(C)(C)C)c(O)c2c1C[C@H]1C[C@H]3[C@H](N(C)C)C(O)=C(C(N)=O)C(=O)[C@@]3(O)C(O)=C1C2=O [Tigecycline, tigecycline]
MIC KP457 CTX-M-15 ([1]; Table 6): 1 µg/mL (≈ 1.71 µM)
MIC KP457 CTX-M-15 ([1]; Table 7): 1 µg/mL (≈ 1.71 µM)
MIC KP457 CTX-M-15 ([1]; control compounds, numeric): 1 µg/mL (≈ 1.71 µM)
MIC SP106 49619 [2]: 0.016 µg/mL (≈ 0.0273 µM)
MIC PA555 BAA-47 ([3]; Table 7): 16 µg/mL (≈ 27.3 µM)
MIC PA555 BAA-47 ([3]; control compounds, numeric): 16 µg/mL (≈ 27.3 µM)
MIC PA1145 Vivisource [19]: 16 µg/mL (≈ 27.3 µM)
MIC KP153 tetA [4]: 1 µg/mL (≈ 1.71 µM)
MIC AB250 ([5]; Table 5): 8 µg/mL (≈ 13.7 µM)
MIC AB250 ([5]; Table 6): 8 µg/mL (≈ 13.7 µM)
MIC AB250 ([5]; Table 7): 8 µg/mL (≈ 13.7 µM)
MIC SM256 ([6]; Table 5): 1 µg/mL (≈ 1.71 µM)
MIC SM256 ([6]; Table 6): 1 µg/mL (≈ 1.71 µM)
MIC SM256 ([6]; Table 7): 1 µg/mL (≈ 1.71 µM)
MIC PM385 ([7]; Table 7): 4 µg/mL (≈ 6.83 µM)
MIC PM385 ([7]; control compounds, numeric): 4 µg/mL (≈ 6.83 µM)
MIC PA556 ([8]; Table 5): 0.25 µg/mL (≈ 0.427 µM)
MIC PA556 ([8]; Table 6): 0.25 µg/mL (≈ 0.427 µM)
MIC PA556 ([8]; Table 7): 0.25 µg/mL (≈ 0.427 µM)
MIC [9]: 8 µg/mL (≈ 13.7 µM)
MIC EC155 tetA ([10]; Table 5): 0.5 µg/mL (≈ 0.854 µM)
MIC EC155 tetA ([10]; Table 6): 0.5 µg/mL (≈ 0.854 µM)
MIC EC155 tetA ([10]; Table 7): 0.5 µg/mL (≈ 0.854 µM)
MIC EC155 tetA ([10]; control compounds, numeric): 0.5 µg/mL (≈ 0.854 µM)
